Data: patent US8304002B2, “Fenugreek extract for treating human and animal diseases involving flagellate parasites” (Setubio S.A.S., priority 2008, dated 2012)

What was measured:
[1] = test system: bacterial flora associated with H. meleagridis; assay: Effect on the bacterial flora associated with H. meleagridis; type: cell-based; details: 48 h of culture, FIG. 4
Protocol: An aliquot of H. meleagridis culture was taken. Four serial dilutions (10^-4 to 10^-7) were made in liquid tryptone soya medium. 20 μL of each dilution was spread onto tryptone soya agar medium. Incubation at 37° C. overnight. The effects of different concentrations of […] and of DMZ on the associated bacterial flora after 48 h of culture were then compared. The results are expressed in number of bacteria per mL (FIG. 4). The extract […] was histomonicidal from 1 mg/mL. It had no effect on the associated bacterial flora. Dimetridazole is histomonicidal from 25 μg/mL at 72 h. On the other hand it is bactericidal from 400 μg/mL.

[2] = test system: Histomonas meleagridis; assay: Anti-Histomonas activity: in vitro culture with parasite counts; type: cell-based
Protocol: The strain of H. meleagridis was isolated from the caeca of turkeys experimentally infested with eggs of the H. gallinarum worm. The parasites were cultured at 39° C. in sealed glass tubes containing 3 mL of supplemented M199 medium. They were transferred twice a week. To do this, 80 μL of preculture were added to 3 mL of fresh medium previously heated in a water bath to 39° C. Counting was performed in a Malassez counting chamber after staining with 0.4% trypan blue. The 100 fields of the chamber were counted. […] was tested at different concentrations. A parasite count was performed three times after 72 h incubation. A negative control was included by replacing the extract with the solvent only (sterile water). To study the dose-dependent effect, each test was performed in triplicate, with different concentrations, counting the parasites at 24 h, 48 h and 72 h. A negative control was included by replacing the extract with the solvent only.

[3] = test system: Histomonas meleagridis; assay: Regrowth of H. meleagridis after transfer into fresh medium following 72 h treatment; type: cell-based
Protocol: After 72 h of treatment with […] and DMZ, the parasites were put into fresh medium for 96 h to analyse the histomonicidal effect (FIG. 5).

[4] = test system: MRC5 cells; assay: Cytotoxicity test (protein assay, SRB) on MRC5 cells; type: cell-based, human; details: MRC5, 100 μg/mL to 2 mg/mL, 24 h and 48 h
Protocol: The MRC5 cells (primary human foetal lung fibroblasts) were cultured in 25 or 75 cm^2 dishes in supplemented MEM (Minimum Essential Medium, Life Technologies Gibco), in a chamber at 37° C. and % CO2. 500 mL of MEM was supplemented with foetal calf serum (10% final), glutamine 2 mM (5 mL), antibiotics (5 mL penicillin/streptomycin i.e. […], 0.5 mL ampicillin i.e. 10 μg/ml, 0.25 mL gentamicin i.e. 25 μg/mL) and fungicides (5 mL fungizone i.e. 2.5 μg/mL). When the cells reached confluence, they were trypsinised and transferred into 96-well plates at […]. They were then incubated at 37° C., 5% CO2 for 24 h before starting the test. The plates were duplicated for a protein assay after 24 and 48 h. This test consists of culturing the cells in the presence of extracts, then precipitating total proteins to determine their concentration. The MRC5 cells were put into contact with 200 μL of supplemented MEM containing different concentrations of the extracts to be tested. […] Each dilution was tested in triplicate to produce a mean. Two controls were used: • a negative control: cells in the supplemented MEM only • a positive control: cells in the presence of a mixture of the supplemented MEM and 50% DMSO The plates were then incubated at 37° C., 5% CO2 for 24 or 48 h. […] The contents of the wells were homogenised and the optical density read at 490 nm. […]

[5] = 25 μg/mL for 72 h, then fresh medium 96 h

Compound	concentration from which bactericidal [1]	effect on growth of H. meleagridis (in words) ([2]; FIG. 3, tested in parallel S520/DMZ)	concentration from which histomonicidal ([2]; at 72 h)	concentration at which parasiticidal ([2]; growth of H. meleagridis, FIG. 3)	regrowth of the culture ([3]; 12.5 μg/mL for 72 h, then fresh medium 96 h)	growth relative to the control after transfer [3, 5]	regrowth of the culture [3, 5]	regrowth of the culture ([3]; 400 μg/mL for 72 h, then fresh medium 96 h)	regrowth of the culture ([3]; 1 mg/mL for 72 h, then fresh medium 96 h)	concentration from which histomonicidal (confirmed by regrowth) ([3]; 72 h treatment, then fresh medium 96 h)	histomonicidal or histomonostatic (confirmed by regrowth) ([3]; at 25 μg/mL)	inhibition at 2000 µg/mL ([2]; Histomonas meleagridis, 2 mg/mL, at 72 h, read-out: inhibition of proliferation of H. meleagridis)	effect on the proliferation of H. meleagridis ([2]; at 2 mg/mL)	cytotoxicity for human cells in culture [4]
Cc1ncc([N+](=O)[O-])n1C [DMZ, dimetridazole]	≥ 400 µg/mL	parasitostatic	≥ 25 µg/mL	25 µg/mL	regrowth	about 30%	regrowth	No regrowth	No regrowth	≥ 400 µg/mL	histomonostatic	–	–	–
O=C(N/N=C/c1ccc([N+](=O)[O-])o1)c1cc([N+](=O)[O-])cc([N+](=O)[O-])c1O [Nifursol]	–	–	–	–	–	–	–	–	–	–	–	38%	slightly histomonostatic	not toxic
